{
  "source": "paper PMC12396409",
  "about": "“Screening and hit evaluation of a microbial metabolite library against the pathogenic Plasmodium falciparum and Toxoplasma gondii parasites” (International Journal for Parasitology: Drugs and Drug …, 2025)",
  "key": {"[1]": {"tested_on": "T. gondii RH strain (RH-Tub-eYFP) tachyzoites", "test": "microbe, parasite or virus in culture", "type": "cell-based, Toxoplasma gondii", "details": "72 h; for percent parasite growth at 2 µg/mL: Toxoplasma gondii"}, "[2]": {"tested_on": "P. falciparum 3D7 parasites", "test": "P. falciparum growth inhibition assay, 2-cycle (120 h treatment), delayed-death screen and dose-response", "type": "cell-based, Plasmodium falciparum", "details": "120 h; for activity at 2 µg/mL: Plasmodium falciparum"}, "[3]": {"tested_on": "P. falciparum 3D7 parasites", "test": "P. falciparum growth inhibition assay, 1-cycle (72 h treatment), SYBR DNA staining (library screen at 2 μg/mL and dose-response)", "type": "cell-based, Plasmodium falciparum", "details": "for Pf_72h_%Growth_Rep1 / Pf_72h_%Growth_Rep2 / activity at 2 µg/mL: 72 h; for activity at 2 µg/mL: Plasmodium falciparum"}, "[4]": {"details": "library screen at 2 μg/mL, % growth, replicate 1"}, "[5]": {"details": "library screen at 2 μg/mL, % growth, replicate 2"}, "[6]": {"details": "T. gondii, parasite screen 2 μg/mL, % growth, replicate 1"}, "[7]": {"details": "T. gondii, parasite screen 2 μg/mL, % growth, replicate 2"}, "[8]": {"details": "P. falciparum, parasite screen 2 μg/mL, % growth, replicate 1"}, "[9]": {"details": "P. falciparum, parasite screen 2 μg/mL, % growth, replicate 2"}, "[10]": {"details": "T. gondii, parasite screen 2 μg/mL, % growth, replicate 1, read-out: Tg_72h_%Growth_Rep1"}, "[11]": {"details": "T. gondii, parasite screen 2 μg/mL, % growth, replicate 2, read-out: Tg_72h_%Growth_Rep2"}, "[12]": {"details": "P. falciparum, screen at 2 μg/mL, replicate 1"}, "[13]": {"details": "P. falciparum, screen at 2 μg/mL, replicate 2"}},
  "note": "Where two headings read alike, the source gives them in different places. Where a SMILES comes first, the peptide text is derived from it. [ ]: non-standard residue; d: D form. Hiv = CC(C)[C@H](O)C(=O)O",
  "data": [
    {"compound": "CO[C@H]1C[C@H](O[C@H]2[C@H](C)O[C@@H](O[C@@H]3/C(C)=C/C[C@@H]4C[C@@H](C[C@]5(C=C[C@H](C)[C@@H](C6CCCCC6)O5)O4)OC(=O)[C@H]4C=C(C)[C@@H](O)[C@H]5OC/C(=C\\C=C\\[C@@H]3C)[C@@]45O)C[C@@H]2OC)O[C@@H](C)[C@@H]1O", "note": "[Doramectin, epi-]", "values": [
      {"measurement": "Tg_72h_%Growth_Rep1", "setting": "[1]; [4]", "value": 72.64, "unit": "%"},
      {"measurement": "Tg_72h_%Growth_Rep2", "setting": "[1]; [5]", "value": 83.42, "unit": "%"},
      {"measurement": "Pf_120h_%Growth_Rep1", "setting": "[2]; [4]", "value": -3.39, "unit": "%"},
      {"measurement": "Pf_120h_%Growth_Rep2", "setting": "[2]; [5]", "value": 23.35, "unit": "%"},
      {"measurement": "Pf_72h_%Growth_Rep1", "setting": "[3]; [4]", "value": 8.06, "unit": "%"},
      {"measurement": "Pf_72h_%Growth_Rep2", "setting": "[3]; [5]", "value": 18.63, "unit": "%"}
    ]},
    {"compound": "CC(=O)Nc1c2sscc-2n(C)c1=O", "note": "[Thiolutin]", "values": [
      {"measurement": "percent parasite growth at 2 µg/mL", "setting": "[1]; T. gondii, screen at 2 μg/mL, replicate 1, read-out: Tg_72h_%Growth_Rep1", "value": 2.01, "unit": "%"},
      {"measurement": "percent parasite growth at 2 µg/mL", "setting": "[1]; T. gondii, screen at 2 μg/mL, replicate 2, read-out: Tg_72h_%Growth_Rep2", "value": 1.94, "unit": "%"},
      {"measurement": "activity at 2 µg/mL", "setting": "[2]; 3D7, P. falciparum, screen at 2 μg/mL, replicate 1, read-out: Pf_120h_%Growth_Rep1", "value": 42.4, "unit": "%"},
      {"measurement": "activity at 2 µg/mL", "setting": "[2]; 3D7, P. falciparum, screen at 2 μg/mL, replicate 2, read-out: Pf_120h_%Growth_Rep2", "value": 15.5, "unit": "%"},
      {"measurement": "activity at 2 µg/mL", "setting": "[3]; 3D7, P. falciparum, screen at 2 μg/mL, replicate 1, read-out: Pf_72h_%Growth_Rep1", "value": 4.59, "unit": "%"},
      {"measurement": "activity at 2 µg/mL", "setting": "[3]; 3D7, P. falciparum, screen at 2 μg/mL, replicate 2, read-out: Pf_72h_%Growth_Rep2", "value": 0.05, "unit": "%"}
    ]},
    {"compound": "CC[C@H]1CCC[C@H](O)[C@@H](C)C(=O)C2=C[C@@H]3[C@@H](C=C[C@@H]4C[C@@H](O)C[C@@H]34)[C@@H]2CC(=O)O1", "note": "[Spinosyn A aglycone]", "values": [
      {"measurement": "Tg_72h_%Growth_Rep1", "setting": "[1]; [6]", "value": 107.96, "unit": "%"},
      {"measurement": "Tg_72h_%Growth_Rep2", "setting": "[1]; [7]", "value": 78.11, "unit": "%"},
      {"measurement": "Pf_120h_%Growth_Rep1", "setting": "[2]; [8]", "value": 95.52, "unit": "%"},
      {"measurement": "Pf_120h_%Growth_Rep2", "setting": "[2]; [9]", "value": 13.75, "unit": "%"},
      {"measurement": "IC50", "setting": "[3]; 3D7, 72 h treatment, mean ± S.D., n ≥ 3, read-out: IC50 (μM), P. falciparum", "value": "> 1", "unit": "µM"},
      {"measurement": "Pf_72h_%Growth_Rep1", "setting": "[3]; [8]", "value": 91.52, "unit": "%"},
      {"measurement": "Pf_72h_%Growth_Rep2", "setting": "[3]; [9]", "value": 38.04, "unit": "%"},
      {"measurement": "Screen (P. falciparum)", "setting": "[3]; library screen at 2 μg/mL, 3D7, 72 h, DD from the 120 h timepoint", "value": "I"}
    ]},
    {"compound": "CC(C)C[C@@H]1NC(=O)[C@H](C(C)C)NC(=O)[C@H](C(C)C)OC(=O)[C@@H](CC(C)C)NC(=O)[C@@H](C(C)C)NC(=O)[C@H](C(C)C)OC1=O", "note": "[Sporidesmolide III] (cyclo([Hiv]VL[Hiv][dV][dL]))", "values": [
      {"measurement": "Tg_72h_%Growth_Rep1", "setting": "[1]; [6]", "value": 94.68, "unit": "%"},
      {"measurement": "Tg_72h_%Growth_Rep2", "setting": "[1]; [7]", "value": 93.28, "unit": "%"},
      {"measurement": "Pf_120h_%Growth_Rep1", "setting": "[2]; [8]", "value": 153.85, "unit": "%"},
      {"measurement": "Pf_120h_%Growth_Rep2", "setting": "[2]; [9]", "value": 76.17, "unit": "%"},
      {"measurement": "Pf_72h_%Growth_Rep1", "setting": "[3]; [8]", "value": 74.67, "unit": "%"},
      {"measurement": "Pf_72h_%Growth_Rep2", "setting": "[3]; [9]", "value": 81.35, "unit": "%"}
    ]},
    {"compound": "COc1cc(C)c2c(c1C=O)Oc1c(c(C)c(O)c3c1C(O)OC3=O)OC2=O", "note": "(centres unmarked) [Stictic acid]", "values": [
      {"measurement": "percent parasite growth at 2 µg/mL", "setting": "[1]; [10]", "value": 115, "unit": "%"},
      {"measurement": "percent parasite growth at 2 µg/mL", "setting": "[1]; [11]", "value": 87, "unit": "%"},
      {"measurement": "activity at 2 µg/mL", "setting": "[2]; 3D7, P. falciparum, parasite screen 2 μg/mL, % growth, replicate 1, read-out: Pf_120h_%Growth_Rep1", "value": 88.2, "unit": "%"},
      {"measurement": "activity at 2 µg/mL", "setting": "[2]; 3D7, P. falciparum, parasite screen 2 μg/mL, % growth, replicate 2, read-out: Pf_120h_%Growth_Rep2", "value": 87.2, "unit": "%"},
      {"measurement": "activity at 2 µg/mL", "setting": "[3]; 3D7, P. falciparum, parasite screen 2 μg/mL, % growth, replicate 1, read-out: Pf_72h_%Growth_Rep1", "value": 81.8, "unit": "%"},
      {"measurement": "activity at 2 µg/mL", "setting": "[3]; 3D7, P. falciparum, parasite screen 2 μg/mL, % growth, replicate 2, read-out: Pf_72h_%Growth_Rep2", "value": 80.1, "unit": "%"}
    ]},
    {"compound": "Enniatin A", "values": [
      {"measurement": "Tg_72h_%Growth_Rep1", "setting": "[1]; [4]", "value": 2.24, "unit": "%"},
      {"measurement": "Tg_72h_%Growth_Rep2", "setting": "[1]; [5]", "value": 14.07, "unit": "%"},
      {"measurement": "Pf_120h_%Growth_Rep1", "setting": "[2]; [4]", "value": 12.21, "unit": "%"},
      {"measurement": "Pf_120h_%Growth_Rep2", "setting": "[2]; [5]", "value": 16.45, "unit": "%"},
      {"measurement": "Pf_72h_%Growth_Rep1", "setting": "[3]; [4]", "value": 2.40, "unit": "%"},
      {"measurement": "Pf_72h_%Growth_Rep2", "setting": "[3]; [5]", "value": -1.22, "unit": "%"}
    ]},
    {"compound": "CCCCCCCCCC(=O)N[C@H]1[C@H](Oc2c3cc4cc2Oc2ccc(cc2Cl)[C@@H](O[C@@H]2O[C@H](CO)[C@@H](O)[C@H](O)[C@H]2NC(C)=O)[C@@H]2NC(=O)[C@H](NC(=O)[C@@H]4NC(=O)[C@H]4NC(=O)[C@H](Cc5ccc(c(Cl)c5)O3)NC(=O)[C@H](N)c3ccc(O)c(c3)Oc3cc(O)cc4c3)c3ccc(O)c(c3)-c3c(O[C@H]4O[C@H](CO)[C@@H](O)[C@H](O)[C@@H]4O)cc(O)cc3[C@@H](C(=O)O)NC2=O)O[C@H](CO)[C@@H](O)[C@@H]1O", "note": "[Teicoplanin A2-3]", "values": [
      {"measurement": "percent parasite growth at 2 µg/mL", "setting": "[1]; [10]", "value": 112, "unit": "%"},
      {"measurement": "percent parasite growth at 2 µg/mL", "setting": "[1]; [11]", "value": 84.1, "unit": "%"},
      {"measurement": "activity at 2 µg/mL", "setting": "[2]; 3D7, 120 h, P. falciparum, parasite screen 2 μg/mL, % growth, replicate 1, read-out: Pf_120h_%Growth_Rep1", "value": 110, "unit": "%"},
      {"measurement": "activity at 2 µg/mL", "setting": "[2]; 3D7, 120 h, P. falciparum, parasite screen 2 μg/mL, % growth, replicate 2, read-out: Pf_120h_%Growth_Rep2", "value": 97, "unit": "%"},
      {"measurement": "activity at 2 µg/mL", "setting": "[3]; 3D7, 72 h, P. falciparum, parasite screen 2 μg/mL, % growth, replicate 1, read-out: Pf_72h_%Growth_Rep1", "value": 88.9, "unit": "%"},
      {"measurement": "activity at 2 µg/mL", "setting": "[3]; 3D7, 72 h, P. falciparum, parasite screen 2 μg/mL, % growth, replicate 2, read-out: Pf_72h_%Growth_Rep2", "value": 128, "unit": "%"}
    ]},
    {"compound": "CC[C@H]1OC(=O)[C@H](C)[C@@H](O[C@H]2C[C@@](C)(OC)[C@@H](O)[C@H](C)O2)[C@H](C)[C@@H](O[C@@H]2O[C@H](C)C[C@H](NC)[C@H]2O)[C@](C)(O)C[C@@H](C)C(=O)[C@H](C)[C@@H](O)[C@]1(C)O", "note": "[Demethylerythromycin A, N-]", "values": [
      {"measurement": "Tg_72h_%Growth_Rep1", "setting": "[1]; T. gondii, screen at 2 μg/mL, replicate 1", "value": 111.33, "unit": "%"},
      {"measurement": "Tg_72h_%Growth_Rep2", "setting": "[1]; T. gondii, screen at 2 μg/mL, replicate 2", "value": 103.06, "unit": "%"},
      {"measurement": "Pf_120h_%Growth_Rep1", "setting": "[2]; [12]", "value": 108.40, "unit": "%"},
      {"measurement": "Pf_120h_%Growth_Rep2", "setting": "[2]; [13]", "value": 97.63, "unit": "%"},
      {"measurement": "Pf_72h_%Growth_Rep1", "setting": "[3]; [12]", "value": 87.44, "unit": "%"},
      {"measurement": "Pf_72h_%Growth_Rep2", "setting": "[3]; [13]", "value": 93.22, "unit": "%"}
    ]}
  ]
}
